One data set can be described thus: Solubility (Table 1). The settings on record: for Solubility Insoluble: solvents in which the compound is insoluble; for Solubility Soluble: solvents in which the compound is soluble. It counts as physicochemical. The protocol: Each of the compounds prepared by Examples 1 to 7 were subjected to UV absorbance analysis, IR(infrared) absorbance analysis and high resolution mass spectrometry analysis so as to determine the molecular weight and formula of the purified compound. Specifically, UV absorbance analysis was carried out by UV-265 spectrophotometer (Shimadzu), IR absorbance analysis was carried out by FTS-80 spectrophotometer (Bio-Rad Digilab Division), and the molecular weight and formula were determined through High resolution MS analysis by using VG70-SEQ mass spectrometry. Also, a nuclear magnetic resonance device (Varian 300, 500 NMR) was used to obtain ^1H, ^13C-NMR spectrum, and the spectrum was synthetically analyzed to determine the structure.

For the next data set, the system named is diabetic db/db mice. The data set is described as follows: Blood glucose level in db/db mice. The data set is classed as in vivo. The settings on record: for reduced extent of blood glucose level compared to control / blood glucose level: 10 mg/kg oral. The procedure:
In order to measure the blood glucose level in db/db mice through treatment of the compounds obtained from Examples, the effects of the compounds were measured by using a method described in the reference (Halseth A E et al, Biochem Biophys Res Commun. 294, […], 2002).
Meanwhile, to a control group, the same volume of saline solution orally administered for 4 weeks. Then, the change in blood glucose level of the mice was recorded.

Entries after “also recorded” stand apart in the source; their conditions may differ.

For `CCCc1ccc(Oc2cc(CCC)cc(O)c2O)cc1` [Example 2, 3-(4-propylphenoxy)-5-propylbenzene-1,2-diol], in “Solubility (Table 1)”, the “Solubility Insoluble” value is reported as “Water”; the “Solubility Soluble” value is “Alcohol, and DMSO”.
For the compound `C/C=C/c1ccc(Oc2cc(/C=C/C)cc(O)c2O)cc1` [Example 5, 3-(4-((E)-prop-1-enyl)phenoxy)-5-((E)-prop-1-enyl)benzene-1,2-diol], in “Solubility (Table 1)”, the “Solubility Insoluble” value is given as “Water”; the “Solubility Soluble” value was “Alcohol, and DMSO”.
On to obovatol [Example 1], for which the “change in blood glucose level compared to the control group” value in the data set on diabetic db/db mice (5 mg/kg oral, 4 weeks) is on record as “did not show a significant change”. Further, the “reduced extent of blood glucose level compared to control” value in the data set with diabetic db/db mice (after 1 week) is given as 39.6%; with diabetic db/db mice (after 2 weeks), 29.2%; in the data set on diabetic db/db mice (after 3 weeks), 52.7%; in the data set on diabetic db/db mice (after 4 weeks) it was 55.2%. The blood glucose level with diabetic db/db mice (after 1 week (control 390.25±44.1)) is given as 235.75±20.9; in the data set with diabetic db/db mice (after 2 weeks (control 419.75±28.8)), 297.25±29; in the data set on diabetic db/db mice (after 3 weeks (control 495±86.2)) it was 234±61.5; in the data set with diabetic db/db mice (after 4 weeks (control 522±78)), 288±27.6.
Consider `C/C=C/c1ccc(Oc2cc(/C=C/C)cc(OC(C)=O)c2OC(C)=O)cc1` [Example 7, 1-(4-((E)-prop-1-enyl)phenoxy)-2,3-diacetyloxy-5-((E)-prop-1-enyl)benzene], for which, in the data set “Solubility (Table 1)”, the “Solubility Insoluble” value was “Water”; the “Solubility Soluble” value is “Alcohol, and DMSO”.
Consider `CCCc1ccc(Oc2cc(CCC)cc(OC(C)=O)c2OC(C)=O)cc1` [Example 4, 1-(4-propylphenoxy)-2,3-diacetyloxy-5-propylbenzene], for which, in the data set “Solubility (Table 1)”, the “Solubility Insoluble” value is reported as “Water”; the “Solubility Soluble” value is “Alcohol, and DMSO”.
As for `CCCc1ccc(Oc2cc(CCC)cc(O)c2OC)cc1` [Example 3, 3-(4-propylphenoxy)-2-methoxy-5-propylphenol], in the data set “Solubility (Table 1)”, the “Solubility Insoluble” value is on record as “Hexane,; also recorded: Water”; the “Solubility Soluble” value was “Alcohol, and DMSO”.

Values taken from patent publication US20100125103A1 (TG BIOTECH CO. LTD., priority 2008, published 2010).
